Assay: xn = mol fraction of the nth substance listed
Conditions: 101.33 kPa, Liquid

CCCCCl [1-chlorobutane] + CC(C)(C)O
Conditions	mass density [kg/m3]	viscosity [mPa·s]
298.15 K, x2 = 0.0966	–	0.442
298.15 K, x2 = 0.2	–	0.476
298.15 K, x2 = 0.2904	–	0.517
298.15 K, x2 = 0.3901	–	0.577
298.15 K, x2 = 0.4897	–	0.662
298.15 K, x2 = 0.5956	–	0.799
298.15 K, x2 = 0.6919	–	1
298.15 K, x2 = 0.8008	–	1.425
298.15 K, x2 = 0.8889	–	2.112
303.15 K, x2 = 0.0924	864.09	–
303.15 K, x2 = 0.0966	–	0.419
303.15 K, x2 = 0.1915	853.49	–
303.15 K, x2 = 0.2	–	0.449
303.15 K, x2 = 0.2758	844.75	–
303.15 K, x2 = 0.2904	–	0.486
303.15 K, x2 = 0.38	834.23	–
303.15 K, x2 = 0.3901	–	0.537
303.15 K, x2 = 0.481	824.02	–
303.15 K, x2 = 0.4897	–	0.611
303.15 K, x2 = 0.5729	814.91	–
303.15 K, x2 = 0.5956	–	0.727
303.15 K, x2 = 0.6749	804.89	–
303.15 K, x2 = 0.6919	–	0.892
303.15 K, x2 = 0.7778	795.09	–
303.15 K, x2 = 0.8008	–	1.232
303.15 K, x2 = 0.8889	–	1.752
303.15 K, x2 = 0.8938	784.46	–
308.15 K, x2 = 0.0966	–	0.397
308.15 K, x2 = 0.0969	857.96	–
308.15 K, x2 = 0.1912	847.87	–
308.15 K, x2 = 0.2	–	0.423
308.15 K, x2 = 0.2786	838.9	–
308.15 K, x2 = 0.2904	–	0.456
308.15 K, x2 = 0.3839	828.23	–
308.15 K, x2 = 0.3901	–	0.502
308.15 K, x2 = 0.4811	818.5	–
308.15 K, x2 = 0.4897	–	0.565
308.15 K, x2 = 0.5844	808.35	–
308.15 K, x2 = 0.5956	–	0.664
308.15 K, x2 = 0.6849	798.55	–
308.15 K, x2 = 0.6919	–	0.801
308.15 K, x2 = 0.7881	788.78	–
308.15 K, x2 = 0.8008	–	1.081
308.15 K, x2 = 0.8889	–	1.474
308.15 K, x2 = 0.8957	779.05	–
313.15 K, x2 = 0.093	852.6	–
313.15 K, x2 = 0.0966	–	0.378
313.15 K, x2 = 0.1869	842.51	–
313.15 K, x2 = 0.2	–	0.4
313.15 K, x2 = 0.2685	834.13	–
313.15 K, x2 = 0.2904	–	0.428
313.15 K, x2 = 0.3778	823.11	–
313.15 K, x2 = 0.3901	–	0.468
313.15 K, x2 = 0.4841	812.56	–
313.15 K, x2 = 0.4897	–	0.525
313.15 K, x2 = 0.5777	803.43	–
313.15 K, x2 = 0.5956	–	0.608
313.15 K, x2 = 0.6796	793.58	–
313.15 K, x2 = 0.6919	–	0.724
313.15 K, x2 = 0.7766	784.47	–
313.15 K, x2 = 0.8008	–	0.947
313.15 K, x2 = 0.8889	–	1.255
313.15 K, x2 = 0.8972	773.57	–
318.15 K, x2 = 0.0918	847.04	–
318.15 K, x2 = 0.0966	–	0.359
318.15 K, x2 = 0.1839	837.08	–
318.15 K, x2 = 0.2	–	0.38
318.15 K, x2 = 0.2674	828.47	–
318.15 K, x2 = 0.2904	–	0.404
318.15 K, x2 = 0.3797	817.22	–
318.15 K, x2 = 0.3901	–	0.439
318.15 K, x2 = 0.4809	807.29	–
318.15 K, x2 = 0.4897	–	0.488
318.15 K, x2 = 0.5799	797.62	–
318.15 K, x2 = 0.5956	–	0.56
318.15 K, x2 = 0.678	788.38	–
318.15 K, x2 = 0.6919	–	0.658
318.15 K, x2 = 0.7833	778.42	–
318.15 K, x2 = 0.8008	–	0.841
318.15 K, x2 = 0.8889	–	1.083
318.15 K, x2 = 0.8905	768.84	–

— the NIST ThermoML archive (doi:10.1021/je0496140)
